In US11752219B2, “Substrate delivery of embedded liposomes” (NUtech Ventures, priority 2015, dated 2023):
In brackets after ≈: the same amount, converted by molar mass.

How the values were obtained:
A172 = test: DOX potency assay (MTT); format: cell-based; conditions: DOX concentration, 24-hour incubation
Description: (§1) Encapsulation of DOX into HALNPs Doxorubicin (DOX) was encapsulated inside the aqueous core of the HALNPs as described above and in Hayward et al, Sci. Rep. 2015, 5:14683. Briefly, a vial of lyophilized HALNPs (0.5 mg lipid) was brought to room temperature, and rehydrated with 1/10th its original pre-lyophilized volume of 0.05×PBS containing 250 μg DOX. Following a thirty minute incubation time to allow for lipid membrane re-assembly, the vial was brought back to its full pre-lyophilized volume with 1×PBS and ultracentrifuged to remove non-encapsulated DOX (140,000 g, 4° C., and 1.25 hr.). The auto-fluorescent property of DOX was then used to determine the entrapment payload. […]
(§2) To determine the effect of free DOX and HALNPDOX on the cell viability of Cort Astro, MG and A172 cells, an MTT assay was utilized as described herein to calculate the lethal concentration to kill 50% of the cells (see also, e.g., Hayward et al, Sci. Rep. 2015, 5:14683; Wilson et al, Nanoscale, 2015, 7:18477-18488; Natarajan et al, PLOS One, 2015, 10:e0134541). […] The cells were then lysed with acidified IPA and the absorbance of the produced formazan crystals was measured using a Beckman Coulter AD340 plate reader (Indianapolis, Ind., USA). Percent viability was determined by normalization of the 570/620 absorbance ratio to the control untreated cells and positive control dead cells (ethanol treated).

Cort Astro = test: DOX potency assay (MTT); format: cell-based, rat; conditions: DOX concentration, 24-hour incubation
Description: as §1, §2

[1] = test system: 21MT-1 metastatic breast cancer cells; test: Doxorubicin potency assay (MTT); format: cell-based, human; conditions: DOX concentration, 24 hours
Description: The DOX concentration lethal to 50% of the 21MT-1 cells (LC50) was determined utilizing the MTT (3-(4,5-[…])2,5-diphenyl tetrazolium bromide) assay kit from Life Technologies (Carlsbad, Calif., USA). This colorimetric assay assesses cell health as a function of the mitochondrial conversion of MTT salt to Formazan. A two-step procedure was implemented for precise loading of DOX into the HALNPs and then into the HALNP-PEM platform.
First a solution of […] of DOX in 0.05×PBS was used to rehydrate a lyophilized vial of HALNPs and excess (un-encapsulated) DOX was removed using ultracentrifugation (140,000 g, 1.25 hrs, 4° C.). […] The initial vial of HALNPs (1 mg Total Lipid) concentration was known, thus both the total amount of encapsulated DOX and lipid were fully determined. […]
21MT-1 cells were seeded at a density of 32,000 cells/well in three 48 well plates with different DOX configurations: 1) PEM platform with embedded HALNPDOX [(PLL/SPS)4.5(HALNPDOX)(PLL/SPS)2.5], 2) Bolus form HALNPDOX, and 3) free non-encapsulated DOX. […] Cells were then lysed with lysis buffer (acidified IPA) and the absorbance was measured at 570 and 620 nm using a Beckman Coulter AD340 plate reader (Indianapolis, Ind., USA). Percent viability was determined by normalization of the 570/620 absorbance ratio to the control untreated cells and positive control dead cells.

MG = test: DOX potency assay (MTT); format: cell-based, mouse; conditions: DOX concentration, 24-hour incubation
Description: as §1, §2

SMILES: COc1cccc2c1C(=O)c1c(O)c3c(c(O)c1C2=O)C[C@@](O)(C(=O)CO)C[C@@H]3O[C@H]1C[C@H](N)[C@H](O)[C@H](C)O1 [Free DOX, doxorubicin]
- LC50 values (A172): 0.193 ± 0.030 µg/mL (≈ 0.355 µM)
- LC50 values (Cort Astro): 0.322 ± 0.053 µg/mL (≈ 0.592 µM)
- LC50 [1]: 0.191 ± 0.0301 µg/mL (≈ 0.351 µM)
- LC50 values (MG): 0.267 ± 0.050 µg/mL (≈ 0.491 µM)
